Key:
[1] = test system: OVA-sensitized mouse asthma model; experiment: OVA-sensitized mouse asthma model, number of inflammatory cells in BALF; format: in vivo, mouse (C57/BL6); details: subcutaneous; for neutrophil number in BALF: FIG. 2
Source text: An asthma reaction was induced using a wild-type mouse (C57/BL6) that had previously been sensitized with an antigen of OVA twice (day 0 and day 12) by inhalation sensitization at intervals of four days a total of three times (day 22, day 26, and day 30). Subsequently, the change in the number of inflammatory cells in BALF that was an indicator of an allergic reaction was examined.
That is, a compound having an agonistic activity to EP3 receptor is effective in therapy of an allergic disease such as asthma, and a selective agonistic compound to EP3 receptor can be expected to induce a more remarkable therapeutic effect.

[2] = test system: extracted lung of a sensitized wild-type mouse; experiment: Histamine and LT release from extracted lung of sensitized wild-type mouse by in vitro antigen stimulation
Procedure: The inventors of the present invention have studied on involvement of EP3 receptor in allergy reactions using the method already reported in a literature (Science, 287, 2013-(2000)). Specifically, the asthma condition was induced by inhalation of ovalbumin (hereinafter, abbreviated as OVA) in an EP3 receptor-deficient mouse, and the lung condition was analyzed. […] In addition, the suppression of the amount of histamine released from the sensitized lung by the agonist for the EP3 receptor causes only improvement of the portion enhanced by indomethacin. […] The inventors of the present invention have analyzed an EP3 (one of the PGE2 receptor subtypes) gene-deficient mouse and have already elucidated that EP3 is involved in crisis of an allergic reaction from the results of significant increase in the amount of infiltrated eosinophilics in a bronchoalveolar lavage fluid (hereinafter, abbreviated as BALF), and more significant increase in the number of infiltrated cells into a lung tissue and in the amount of Th2 cytokine in the mouse. Furthermore, they have found out that the amount of a chemical mediator that is released by in vitro antigenic stimulation of the lung of a sensitized wild-type mouse is increased by indomethacin which is a PGH-producing enzyme (cyclooxygenase) inhibitor and is suppressed by an agonist for EP3 receptor. […]

[3] = 10 μg/kg twice a day, day 22 to day 33, FIG. 1
[4] = 10 μg/kg twice a day, day 22 to day 33

Structure (SMILES) | eosinophil number in BALF [1, 3] | neutrophil number in BALF [1, 4] | eosinophil number in BALF ([1]; 200 μg/kg twice a day, FIG. 3) | amount of LT released from the extracted lung [2] | amount of histamine released from the extracted lung [2]
CCCCC[C@@H](/C=C/[C@H]1[C@H](OC)CC(=O)[C@@H]1C/C=C\CCCC(=O)O)OC [compound (I-1), 11α,15α-dimethoxy-9-oxoprosta-5Z,13E-dienoic acid] | decreased significantly | decreased significantly |  |  | 
CCCCC(C)(C)[C@H](O)/C=C/[C@H]1[C@H](O)CC(=O)[C@@H]1C/C=C\CCCC(=O)O [dmPGE2, 16,16-dimethyl PGE2] | no significant effect | no significant effect | significant effect |  | 
COc1ccc2c(c1)c(CC(=O)O)c(C)n2C(=O)c1ccc(Cl)cc1 [indomethacin] |  |  |  | increase | increase
